Laboratory results published in ChEMBL document CHEMBL1142758, “Neuroprotective effects of naturally occurring biflavonoids” (2005).

test: Protective effect of compound on Ab25 35-induced cell death in SH-SY5Y cells (concentration = 4 uM); assay type: functional

Compared with `COc1ccc(C2=CC(=O)C3C(O)=CC(O)=C(c4cc(-c5cc(=O)c6c(O)cc(OC)cc6o5)ccc4OC)C3O2)cc1` (stereo unspecified), `COC1=CC2OC(c3ccc(O)cc3)=CC(=O)C2C(O)=C1Oc1ccc(-c2cc(=O)c3c(O)cc(O)cc3o2)cc1` (stereo unspecified) is lower in Inhibition: 38.1% for the first, 11% for the second.

Going from `O=C1C=C(c2ccc(O)cc2)OC2C=C(O)C(Oc3ccc(-c4cc(=O)c5c(O)cc(O)cc5o4)cc3)=C(O)C12` (stereo unspecified) to `O=c1cc(-c2ccc(Oc3cc(-c4cc(=O)c5c(O)cc(O)cc5o4)ccc3O)cc2)oc2cc(O)cc(O)c12` [OCHNAFLAVONE], the Inhibition falls from -19.9% to -32.1%.

test: Protective effect of compound on SNP-induced cell death in SH-SY5Y cells (concentration = 0.4 uM); assay type: functional

First: COc1ccc(C2=CC(=O)C3C(O)=CC(O)=C(c4cc(-c5cc(=O)c6c(O)cc(OC)cc6o5)ccc4OC)C3O2)cc1 (stereo unspecified)
Second: COC1=CC2OC(c3ccc(O)cc3)=CC(=O)C2C(O)=C1Oc1ccc(-c2cc(=O)c3c(O)cc(O)cc3o2)cc1 (stereo unspecified)
The Inhibition of the first is higher: 28.5% for the first, -16% for the second.

Going from `O=C1C=C(c2ccc(O)cc2)OC2C=C(O)C(Oc3ccc(-c4cc(=O)c5c(O)cc(O)cc5o4)cc3)=C(O)C12` (stereo unspecified) to `O=c1cc(-c2ccc(Oc3cc(-c4cc(=O)c5c(O)cc(O)cc5o4)ccc3O)cc2)oc2cc(O)cc(O)c12` [OCHNAFLAVONE], the Inhibition rises from 2.5% to 10%.

test: Protective effect of compound on Ab25 35-induced cell death in SH-SY5Y cells (concentration = 10 uM); assay type: functional

Going from `O=C1C=C(c2ccc(O)cc2)OC2C=C(O)C(Oc3ccc(-c4cc(=O)c5c(O)cc(O)cc5o4)cc3)=C(O)C12` (stereo unspecified) to `COC1=CC2OC(c3ccc(O)cc3)=CC(=O)C2C(O)=C1Oc1ccc(-c2cc(=O)c3c(O)cc(O)cc3o2)cc1` (stereo unspecified), the Inhibition rises from -10% to -0.2%.

`O=c1cc(-c2ccc(Oc3cc(-c4cc(=O)c5c(O)cc(O)cc5o4)ccc3O)cc2)oc2cc(O)cc(O)c12` [OCHNAFLAVONE] gave an Inhibition of -1.9%.

test: Protective effect of compound on SNP-induced cell death in SH-SY5Y cells (concentration = 10 uM); assay type: functional

First: COc1ccc(C2=CC(=O)C3C(O)=CC(O)=C(c4cc(-c5cc(=O)c6c(O)cc(OC)cc6o5)ccc4OC)C3O2)cc1 (stereo unspecified)
Second: COC1=CC2OC(c3ccc(O)cc3)=CC(=O)C2C(O)=C1Oc1ccc(-c2cc(=O)c3c(O)cc(O)cc3o2)cc1 (stereo unspecified)
The Inhibition of the first is higher: 4.6% for the first, -25% for the second.

First: O=C1C=C(c2ccc(O)cc2)OC2C=C(O)C(Oc3ccc(-c4cc(=O)c5c(O)cc(O)cc5o4)cc3)=C(O)C12 (stereo unspecified)
Second: O=c1cc(-c2ccc(Oc3cc(-c4cc(=O)c5c(O)cc(O)cc5o4)ccc3O)cc2)oc2cc(O)cc(O)c12 [OCHNAFLAVONE]
The Inhibition of the first is higher: 15% for the first, 9.3% for the second.

test: Protective effect of compound on Ab25 35-induced cell death in SH-SY5Y cells (concentration = 0.2 uM); assay type: functional

Going from `COc1ccc(C2=CC(=O)C3C(O)=CC(O)=C(c4cc(-c5cc(=O)c6c(O)cc(OC)cc6o5)ccc4OC)C3O2)cc1` (stereo unspecified) to `COC1=CC2OC(c3ccc(O)cc3)=CC(=O)C2C(O)=C1Oc1ccc(-c2cc(=O)c3c(O)cc(O)cc3o2)cc1` (stereo unspecified), the Inhibition falls from 27.1% to 18%.

Compared with `O=C1C=C(c2ccc(O)cc2)OC2C=C(O)C(Oc3ccc(-c4cc(=O)c5c(O)cc(O)cc5o4)cc3)=C(O)C12` (stereo unspecified), `O=c1cc(-c2ccc(Oc3cc(-c4cc(=O)c5c(O)cc(O)cc5o4)ccc3O)cc2)oc2cc(O)cc(O)c12` [OCHNAFLAVONE] is lower in Inhibition: 8.7% for the first, -12.7% for the second.

test: Protective effect of compound on SNP-induced cell death in SH-SY5Y cells (concentration = 2 uM); assay type: functional

First: COc1ccc(C2=CC(=O)C3C(O)=CC(O)=C(c4cc(-c5cc(=O)c6c(O)cc(OC)cc6o5)ccc4OC)C3O2)cc1 (stereo unspecified)
Second: COC1=CC2OC(c3ccc(O)cc3)=CC(=O)C2C(O)=C1Oc1ccc(-c2cc(=O)c3c(O)cc(O)cc3o2)cc1 (stereo unspecified)
The Inhibition of the first is higher: 8.1% for the first, -14.8% for the second.

First: O=C1C=C(c2ccc(O)cc2)OC2C=C(O)C(Oc3ccc(-c4cc(=O)c5c(O)cc(O)cc5o4)cc3)=C(O)C12 (stereo unspecified)
Second: O=c1cc(-c2ccc(Oc3cc(-c4cc(=O)c5c(O)cc(O)cc5o4)ccc3O)cc2)oc2cc(O)cc(O)c12 [OCHNAFLAVONE]
The Inhibition of the first is lower: -9.4% for the first, 7.7% for the second.

test: Protective effect of compound on hydrogen peroxide-induced cell death in SH-SY5Y cells (concentration = 10 uM); assay type: functional

First: COc1ccc(C2=CC(=O)C3C(O)=CC(O)=C(c4cc(-c5cc(=O)c6c(O)cc(OC)cc6o5)ccc4OC)C3O2)cc1 (stereo unspecified)
Second: COC1=CC2OC(c3ccc(O)cc3)=CC(=O)C2C(O)=C1Oc1ccc(-c2cc(=O)c3c(O)cc(O)cc3o2)cc1 (stereo unspecified)
The Inhibition of the first is higher: 69.5% for the first, 68.1% for the second.

Going from `O=C1C=C(c2ccc(O)cc2)OC2C=C(O)C(Oc3ccc(-c4cc(=O)c5c(O)cc(O)cc5o4)cc3)=C(O)C12` (stereo unspecified) to `O=c1cc(-c2ccc(Oc3cc(-c4cc(=O)c5c(O)cc(O)cc5o4)ccc3O)cc2)oc2cc(O)cc(O)c12` [OCHNAFLAVONE], the Inhibition falls from 56% to -32.7%.

test: Protective effects of test compounds on Ab25 35-induced cell death in SH-SY5Y cells (concentration = 10 uM); assay type: functional

In the case of `COc1ccc(C2=CC(=O)C3C(O)=CC(O)=C(c4cc(-c5cc(=O)c6c(O)cc(OC)cc6o5)ccc4OC)C3O2)cc1` (stereo unspecified), the Inhibition is reported as 35.1 µM.

test: Protective effect of compound on hydrogen peroxide-induced cell death in SH-SY5Y cells (concentration = 2 uM); assay type: functional

First: COc1ccc(C2=CC(=O)C3C(O)=CC(O)=C(c4cc(-c5cc(=O)c6c(O)cc(OC)cc6o5)ccc4OC)C3O2)cc1 (stereo unspecified)
Second: COC1=CC2OC(c3ccc(O)cc3)=CC(=O)C2C(O)=C1Oc1ccc(-c2cc(=O)c3c(O)cc(O)cc3o2)cc1 (stereo unspecified)
The Inhibition of the first is higher: 52.1% for the first, 23.9% for the second.

Compared with `O=C1C=C(c2ccc(O)cc2)OC2C=C(O)C(Oc3ccc(-c4cc(=O)c5c(O)cc(O)cc5o4)cc3)=C(O)C12` (stereo unspecified), `O=c1cc(-c2ccc(Oc3cc(-c4cc(=O)c5c(O)cc(O)cc5o4)ccc3O)cc2)oc2cc(O)cc(O)c12` [OCHNAFLAVONE] is lower in Inhibition: 19.8% for the first, -12.1% for the second.

test: Protective effect of compound on hydrogen peroxide-induced cell death in SH-SY5Y cells (concentration = 0.4 uM); assay type: functional

First: COc1ccc(C2=CC(=O)C3C(O)=CC(O)=C(c4cc(-c5cc(=O)c6c(O)cc(OC)cc6o5)ccc4OC)C3O2)cc1 (stereo unspecified)
Second: COC1=CC2OC(c3ccc(O)cc3)=CC(=O)C2C(O)=C1Oc1ccc(-c2cc(=O)c3c(O)cc(O)cc3o2)cc1 (stereo unspecified)
The Inhibition of the first is higher: 39.5% for the first, -3.5% for the second.

Compared with `O=C1C=C(c2ccc(O)cc2)OC2C=C(O)C(Oc3ccc(-c4cc(=O)c5c(O)cc(O)cc5o4)cc3)=C(O)C12` (stereo unspecified), `O=c1cc(-c2ccc(Oc3cc(-c4cc(=O)c5c(O)cc(O)cc5o4)ccc3O)cc2)oc2cc(O)cc(O)c12` [OCHNAFLAVONE] is lower in Inhibition: 7.8% for the first, -3.6% for the second.
